Assay results from PMC7692337, “Masked Phenolic-Selenium Conjugates: Potent and Selective Antiproliferative Agents Overcoming P-gp Resistance” (Pharmaceuticals, 2020).
Where two headings read alike, the source gives them in different places.

How the values were obtained:
[1] = Free radical scavenging (DPPH method); conditions: 30 min incubation, absorbance at 515 nm; for EC50: read-out: EC50 antiradical activity (DPPH)
Method: (§1) In vitro antioxidant properties of key unprotected phenolic derivatives were analyzed using two different methodologies: free radical scavenging capacity, using the DPPH method (2,2-diphenyl-1-picrylhydrazyl), a HAT (hydrogen atom transfer) procedure, widely-used for both natural and synthetic derivatives, and also the capacity for scavenging H2O2, one of the most common ROS in degenerative diseases, including cancer.
DPPH is a commercially-available stable free radical commonly used for in vitro testing of radical scavenging properties of antioxidants.
Reported methodology was used with minor modifications. To a 60 µM methanolic DPPH solution (1.17 mL), the antioxidant solution (5–7 different solutions, 30 µL) or solvent (control, 30 µL) were added. After 30 min. of incubation in the dark, absorbance was measured at 515 nm, and EC50 values were calculated.

[2] = tested on: BJ-hTert (fibroblasts); test: Antiproliferative activity on non-tumour cells, NCI protocol; format: cell-based, human; conditions: Homo sapiens, Fibroblast, read-out: GI50 BJ-hTert (Fibroblasts)
Method: (§2) Organochalcogen derivatives prepared herein were evaluated in vitro as potential antiproliferative agents, using a panel of six human tumour cell lines: A549 (non-small cell lung), HBL-100 (breast), HeLa (cervix), SW1573 (non-small cell lung), as drug sensitive lines, T-47D (breast) and WiDr (colon) as drug resistant lines. In addition to precursors 2, 6, 7, 13, 14, 17, 19, ebselen and cisplatin (CDDP) were used as reference drugs. […] In both cases, the NCI protocol, with minor modifications, was followed; selected data, including the selectivity index (S.I.) can be found in Table 3 and full data in Supporting Information (Table S1).
(§3) The in vitro antiproliferative activity was assayed using minor modifications of the protocol of the National Cancer Institute (NCI) of the United States against the six human solid tumor cell and the non-tumor cell lines tested.

[3] = tested on: SW1573; test: P-glycoprotein assay, wild type line; format: cell-based; conditions: Homo sapiens, 48 h exposure
Method: (§4) This assay allows prediction of whether a certain chemotherapeutic agent could develop chemoresistance when behaving as a P-gp substrate, one of the most common efllux-pumps used for the extrusion of cell xenobiotics. For that purpose, a cell line-based assay was used, in particular the lung cancer cell line in its wild type (SW1573), and its variant overexpressing P-gp (Sw1573/Pgp). Moreover, compounds were tested in the presence and in the absence of verapamil, which is known to inhibit P-gp. Chemotherapeutic agents paclitaxel (PTX) and vinblastine (VB) are used herein as reference compounds. In this assay, the resistance factor (Rf) for a certain compound is defined as the ratio of GI50 in the cell line overexpressing P-gp and the wild one (Table 4), high values of Rf denoting that the compound behaves as a P-gp substrate, and thus, chemoresistance through this mechanism will probably take place.

[4] = H2O2 scavenging (phenol red / horseradish peroxidase); conditions: At 50 µM
Method: as §1
Herein, following Bahorun’s methodology, in vitro levels of H2O2 were measured in an indirect fashion, by registering the H2O2-mediated oxidation of phenol red in the presence of horseradish peroxidase, to give a chromophore with a maximum absorption at 610 nm. Accordingly, in the presence of an antioxidant agent, there is an inverse correlation between the observed absorbance, and the scavenging properties. Table 2 depicts the H2O2-scavenging properties of compounds prepared herein, and tested at a final 50 µM concentration.
Reported methodology was used with minor modifications.

[5] = tested on: six human tumour cell lines (A549, HBL-100, HeLa, SW1573, T-47D, WiDr); test: Antiproliferative activity, panel of six human tumour cell lines; format: cell-based
Method: as §2, §3

[6] = tested on: A549 (non-small cell lung); test: Antiproliferative activity, NCI protocol; format: cell-based, human
Method: as §2, §3

[7] = tested on: WiDr (colon); test: Antiproliferative activity, NCI protocol; format: cell-based, human; conditions: Homo sapiens, WiDr, read-out: GI50 WiDr (Colon)
Method: as §2, §3

[8] = tested on: T-47D (breast); test: Antiproliferative activity, NCI protocol; format: cell-based, human; conditions: Homo sapiens, T47D, read-out: GI50 T-47D (Breast)
Method: as §2, §3

[9] = tested on: SW1573 (non-small cell lung); test: Antiproliferative activity, NCI protocol; format: cell-based, human; conditions: Homo sapiens
Method: as §2, §3

[10] = tested on: HeLa (cervix); test: Antiproliferative activity, NCI protocol; format: cell-based, human
Method: as §2, §3

[11] = tested on: HBL-100 (breast); test: Antiproliferative activity, NCI protocol; format: cell-based, human
Method: as §2, §3

[12] = P-glycoprotein assay, line overexpressing P-gp; format: cell-based, human; conditions: human, 48 h exposure
Method: as §4

[13] = tested on: SW1573/Pgp; test: P-glycoprotein assay, line overexpressing P-gp; format: cell-based, human; conditions: ratio between GI50 values in SW1573/PGP and SW1573 cells
Method: as §4

Structure (SMILES): c1cc2c(cc1C[Se][Se]Cc1ccc3c(c1)OCO3)OCO2 [Compound 39, Bis[(3’, 4’-methylenedioxyphenyl)methyl]diselenide]
- EC50 antiradical activity (DPPH) [1]: complete impairment of activity
- EC50 [1]: > 250000 nM
- GI50 ([2]; non-tumour cell line): 3900 ± 1000 nM
- GI50 ([3]; with verapamil, read-out: GI50 SW153 w Verapamil): 2500 ± 100 nM
- GI50 ([3]; without verapamil, read-out: GI50 SW1573 w/o Verapamil): 3000 ± 500 nM
- % Scavenging of H2O2 [4]: complete loss of ROS scavenging properties and ---
- GI50 over the tumour cell lines (range, bound or words) ([5]; summary over the tested tumour cell lines, highest tested concentration 100 µM): low micromolar‒submicromolar activities
- GI50 ([6]; Homo sapiens, A549; read-out: GI50 A549 (Lung)): 1200 ± 300 nM
- GI50 ([7]; drug resistant line): 1600 ± 300 nM
- GI50 ([8]; drug resistant line): 2900 ± 400 nM
- GI50 ([9]; SW1573, Table S1, read-out: GI50 SW1573 (Lung)): 3200 ± 900 nM
- GI50 ([10]; Homo sapiens, HeLa; read-out: GI50 HeLa (Cervix)): 2400 ± 1400 nM
- GI50 ([11]; Homo sapiens, HBL-100; read-out: GI50 HBL-100 (Breast)): 2900 ± 600 nM
- GI50 at 48 h ([12]; with verapamil (concentration not stated), with verapamil, read-out: GI50 SW1573/PGP w Verapamil): 5100 ± 400 nM
- GI50 at 48 h ([12]; without verapamil, read-out: GI50 SW1573/PGP w/o Verapamil): 18000 ± 100 nM
- Rf w Verapamil ([13]; with verapamil): 2.0
- Rf w/o Verapamil ([13]; without verapamil): 6.0

Structure (SMILES): O=C(CCC[Se][Se]CCCC(=O)NCCc1ccc2c(c1)OCO2)NCCc1ccc2c(c1)OCO2 [Compound 46, 4,4’-Diselenobis{N-[2′’-(3′’’,4′’’-Methylenedioxyphenyl)ethyl]butanamide}]
- EC50 antiradical activity (DPPH) [1]: complete impairment of activity
- EC50 [1]: > 250000 nM
- GI50 [2]: 1000 ± 100 nM
- % Scavenging of H2O2 [4]: complete loss of ROS scavenging properties and ---
- fold improvement of potency against tumour cell lines compared to 16 ([5]; 46 (acetal) versus 16 (free catechol)): up to 30 fold
- GI50 ([5]; Homo sapiens, read-out: GI50 over the tumour cell lines (range, bound or words)): 120 to 300 nM
- fold increase in activity compared to CDDP ([5]; multidrug resistant cell lines (T-47D, WiDr)): ≤ 104 fold
- GI50 ([6]; Homo sapiens, A549, read-out: GI50 A549 (Lung)): 270 ± 20 nM
- GI50 [7]: 250 ± 60 nM
- GI50 [8]: 190 ± 40 nM
- GI50 ([9]; SW1573, read-out: GI50 SW1573 (Lung)): 300 ± 30 nM
- GI50 ([10]; Homo sapiens, HeLa, read-out: GI50 HeLa (Cervix)): 120 ± 10 nM
- GI50 ([11]; Homo sapiens, HBL-100, read-out: GI50 HBL-100 (Breast)): 250 ± 20 nM
